Laboratory results taken from patent US7560466B2, “Methods of treating or preventing autoimmune diseases with 2,4-pyrimidinediamine compounds” (Rigel Pharmaceuticals, Inc., priority 2003, dated 2009).
Like-named read-outs stand apart in the source and are kept apart here.

Assays:
Syk kinase = target: T1, Syk kinase (Homo sapiens, UniProt P43405); test: Syk kinase biochemical fluorescence polarization assay; conditions: isolated Syk kinase, read-out: fp_syk, 11pt
T1 construct: purchased Upstate, Lake Placid N.Y
Procedure: Many of the 2,4-pyrimidinediamine compounds were tested for the ability to inhibit Syk kinase catalyzed phosphorylation of a peptide substrate in a biochemical fluorescenced polarization assay with isolated Syk kinase. In this experiment, Compounds were diluted to 1% DMSO in kinase buffer (20 mM HEPES, pH 7.4, 5 mM MgCl2, 2 mM MnCl2, 1 mM DTT, 0.1 mg/mL acetylated Bovine Gamma Globulin). Compound in 1% DMSO (0.2% DMSO final) was mixed with ATP/substrate solution at room temperature. Syk kinase (Upstate, Lake Placid N.Y.) was added to a final reaction volume of 20 uL, and the reaction was incubated for 30 minutes at room temperature. […] EDTA (10 mM final)/anti-phosphotyrosine antibody (1× final)/fluorescent phosphopeptide tracer (0.5× final) was added in FP Dilution Buffer to stop the reaction for a total volume of 40 uL according to manufacturer's instructions (PanVera Corporation) The plate was incubated for 30 minutes in the dark at room temperature. Plates were read on a Polarion fluorescence polarization plate reader (Tecan). Data were converted to amount of phosphopeptide present using a calibration curve generated by competition with the phosphopeptide competitor provided in the Tyrosine Kinase Assay Kit, Green (PanVera Corporation).
In Tabe 1, all reported values are IC50s (in μM).

[1] = Plasma concentration in RPA reaction study (satellite / exposure); type: in vivo, mouse; conditions: for concentration at 5 h: pretreatment 1 hr; for Exposure = Pretreatment Time + 4 hours Plasma Concentration ± SEM / concentration at 4.5 h: pretreatment 0.5 hrs
Procedure: Pretreatment time, in which the test compounds are administered prior to Ab/Ag challenge, depends on the pharmacokinetic (PK) properties of each individual compound. Four hours after induction of Arthus reaction, mice are euthanized, and tissues are harvested for assessment of edema.
All compounds tested were administered by the oral route.

[2] = tested on: cultured human mast cells (CHMC), IgE-induced degranulation; test: CHMC low cell density IgE activation: tryptase assay; type: cell-based; conditions: Homo sapiens, Mast cell, low cell density CHMC
Outline: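 Tryptase release read fluorogenically (30 min, room temperature) from supernatants of anti-IgE-challenged cultured human mucosal mast cells derived from umbilical cord CD34+ cells, at low density of 1000–1500 cells/well.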

[3] = tested on: cultured human mast cells (CHMC), ionomycin-induced degranulation; test: CHMC low cell density ionomycin activation: tryptase assay; type: cell-based; conditions: Homo sapiens, Mast cell, low cell density CHMC, ionomycin activation (2 μM final), 3pt, read-out: LD Tryptase, CHMC, Iono, 3pt
[4] = C57BL/6, mouse, plasma, 5 mg/kg oral, read-out: Exposure = Pretreatment Time + 4 hours Plasma Concentration ± SEM

Compound	IC50 (Syk kinase; 11pt) [µM]	further results
Cc1nc2ccc(Nc3ncc(F)c(Nc4ccc5c(c4)NC(=O)[C@H](C)O5)n3)cc2[nH]1 [Compound 811, (S)-5-Fluoro-N2-(2-methyl-3H-benzimidazol-5-yl)-N4-(2-methyl-3-oxo-2H,4H-benz[1,4]oxazin-6-yl)-2,4-pyrimidinediamine]	< 10	–
CC(=O)NCCCn1ncc2cc(Nc3ncc(F)c(Nc4ccc5c(n4)NC(=O)C(C)(C)O5)n3)ccc21 [Compound 822, N2-[1-[3-(N-Acetylamino)propyl]indazol-5-yl]-N4-(2,2-dimethyl-3-oxo-4H-5-pyrid[1,4]oxazin-6-yl)-5-fluoro-2,4-pyrimidinediamine]	< 10	–
Cc1nc2ccc(Nc3ncc(F)c(Nc4ccc5c(n4)NC(=O)C(C)(C)O5)n3)cc2[nH]1 [Compound 845, N4-(2,2-Dimethyl-3-oxo-4H-5-pyrid[1,4]oxazin-6-yl)-5-fluoro-N2-(2-methyl-3H-benzimidazol-5-yl)-2,4-pyrimidinediamine]	< 10	–
CC1(C)Oc2ccc(Nc3nc(Nc4ccc5[nH]c(C(F)(F)F)nc5c4)ncc3F)nc2NC1=O [Compound 846, N4-(2,2-Dimethyl-3-oxo-4H-5-pyrid[1,4]oxazin-6-yl)-5-fluoro-N2-(2-trifluoromethyl-1H-benzimidazol-5-yl)-2,4-pyrimidinediamine]	< 10	–
Cc1nc2cc(Nc3ncc(F)c(Nc4ccc5c(c4)NC(=O)[C@H](C)O5)n3)ccc2n1C [Compound 897]	< 10	–
Cc1nc2cc(Nc3ncc(F)c(Nc4ccc5c(n4)NC(=O)C(C)(C)O5)n3)ccc2n1C [Compound 898, N2-(1,2-Dimethylbenzimidazol-5-yl)-N4-(2,2-dimethyl-3-oxo-4H-5-pyrid[1,4]oxazin-6-yl)-5-Fluoro-2,4-pyrimidinediamine]	< 10	–
Cc1nc2cc(Nc3ncc(F)c(Nc4ccc5c(c4)NC(=O)C(C)(C)O5)n3)ccc2n1CCO [Compound 901]	< 10	–
Cc1nc2cc(Nc3ncc(F)c(Nc4ccc5c(c4)NC(=O)[C@H](C)O5)n3)ccc2n1CCO [Compound 902]	< 10	–
Cc1nc2cc(Nc3ncc(F)c(Nc4ccc5c(n4)NC(=O)C(C)(C)O5)n3)ccc2n1CCO [Compound 903, N4-(2,2-Dimethyl-3-oxo-4H-5-pyrid[1,4]oxazin-6-yl)-5-fluoro-N2-[1-(2-hydroxyethyl)-2-methylbenzimidazol-5-yl)-2,4-pyrimidinediamine]	< 10	–
Cc1nc2ccc(Nc3ncc(F)c(Nc4ccc5c(c4)NC(=O)C(C)S5(=O)=O)n3)cc2[nH]1 (stereo not shown) [Compound 909]	< 10	–
CC1C(=O)Nc2cc(Nc3nc(Nc4ccc5[nH]c(C(F)(F)F)nc5c4)ncc3F)ccc2S1(=O)=O (stereo not shown) [Compound 910, 5-Fluoro-N4-(2-methyl-1,1,3-trioxo-2H,4H-benzo[1,4]thiazin-6-yl)-N2-(2-trifluoromethyl-1H-benzimidazol-5-yl)-2,4-pyrimidinediamine]	< 10	–
Cn1c(N2CCOCC2)nc2cc(Nc3ncc(F)c(Nc4ccc5c(c4)NC(=O)C(C)(C)O5)n3)ccc21 [Compound 944, N4-(2,2-Dimethyl-3-oxo-4H-benz[1,4]oxazin-6-yl)-5-fluoro-N2-[1-methyl-2-(4-morpholino)benzimidazol-5-yl]-2,4-pyrimidinediamine]	< 10	concentration at 5 h ([1]; C57BL/6, mouse, plasma, 2 mg/kg oral, read-out: Exposure = Pretreatment Time + 4 hours Plasma Concentration ± SEM): 4.3 ± 4.2 ng/mL; concentration at 5 h [1, 4]: 3.5 ± 5.3 ng/mL; concentration at 5 h ([1]; C57BL/6, mouse, plasma, 15 mg/kg oral, read-out: Exposure = Pretreatment Time + 4 hours Plasma Concentration ± SEM): 29.7 ± 25.9 ng/mL
CC1(C)Oc2ccc(Nc3nc(Nc4ccc5[nH]c(CN6CCOCC6)nc5c4)ncc3F)cc2NC1=O [Compound 961, N4-(2,2-Dimethyl-3-oxo-4H-benz[1,4]oxazin-6-yl)-5-fluoro-N2-[2-(4-morpholinomethyl)-1H-benzimidazol-5-yl]-2,4-pyrimidinediamine]	< 10	–
CC1(C)Oc2ccc(Nc3nc(Nc4ccc5[nH]c(CN6CCOCC6)nc5c4)ncc3F)nc2NC1=O [Compound 962, N4-(2,2-Dimethyl-3-oxo-4H-5-pyrido[1,4]oxazin-6-yl)-5-fluoro-N2-[2-(4-morpholinomethyl)-1H-benzimidazol-5-yl]-2,4-pyrimidinediamine]	< 10	–
CC1(C)Oc2ccc(Nc3nc(Nc4ccc5[nH]c(N6CCOCC6)nc5c4)ncc3F)cc2NC1=O [Compound 976, N4-(2,2-Dimethyl-3-oxo-4H-benz[1,4]oxazin-6-yl)-5-fluoro-N2-[2-(4-morpholino)-1H-benzimidazol-5-yl]-2,4-pyrimidinediamine]	< 10	–
CC1(C)Oc2ccc(Nc3nc(Nc4ccc5[nH]c(N6CCOCC6)nc5c4)ncc3F)nc2NC1=O [Compound 977, N4-(2,2-Dimethyl-3-oxo-4H-5-pyrido[1,4]oxazin-6-yl)-5-fluoro-N2-[2-(4-morpholino)-1H-benzimidazol-5-yl]-2,4-pyrimidinediamine]	< 10	–
COc1c(C)cc(Nc2ncc(F)c(Nc3ccc4c(c3)NC(=O)C(C)(C)O4)n2)cc1Cl [Compound 994]	< 10	concentration at 5.5 h ([1]; C57BL/6, mouse, plasma, 100 mg/kg oral, 90 minutes pretreatment, read-out: Exposure = Pretreatment Time + 4 hours Plasma Concentration ± SEM): 44.2 ± 8.9 ng/mL; concentration at 90 min ([1]; C57BL/6, mouse, plasma, 100 mg/kg oral, 90 minutes pretreatment, read-out: Satellite: At time of challenge Plasma Concentration ± SEM): 78.6 ± 26.4 ng/mL
COc1c(C)cc(Nc2ncc(F)c(Nc3ccc4c(n3)NC(=O)C(C)(C)O4)n2)cc1C [Compound 997, N2-(3,5-Dimethyl-4-methoxyphenyl)-N4-(2,2-dimethyl-3-oxo-4H-5-pyrid[1,4]oxazin-6-yl)-5-fluoro-2,4-pyrimidinediamine]	< 10	–
COc1cc(Nc2ncc(F)c(Nc3ccc4c(n3)NC(=O)C(C)(C)O4)n2)cc(OC)c1OC [Compound 1007, N4-(2,2-Dimethyl-3-oxo-4H-5-pyrid[1,4]oxazin-6-yl)-5-fluoro-N2-(3,4,5-trimethoxyphenyl)-2,4-pyrimidinediamine]	–	Exposure = Pretreatment Time + 4 hours Plasma Concentration ± SEM ([1]; 0.1 mg/kg oral): BLQ; Exposure = Pretreatment Time + 4 hours Plasma Concentration ± SEM ([1]; 0.5 mg/kg oral): BLQ; concentration at 4.5 h ([1]; C57BL/6, mouse, plasma, 1 mg/kg oral, read-out: Exposure = Pretreatment Time + 4 hours Plasma Concentration ± SEM): 2.3 ± 0.9 ng/mL; concentration at 4.5 h [1, 4]: 19.8 ± 15.7 ng/mL
CCOc1c(C)cc(Nc2ncc(F)c(Nc3ccc4c(c3)NC(=O)C(C)(C)O4)n2)cc1Cl [Compound 1008]	< 10	–
CC1(C)Oc2ccc(Nc3nc(Nc4ccc(-c5ncco5)cc4)ncc3F)cc2NC1=O [Compound 1011]	< 10	–
CC1(C)Oc2ccc(Nc3nc(Nc4cccc(-c5cnco5)c4)ncc3F)cc2NC1=O [Compound 1016]	–	IC50 (Syk kinase; 11-point): < 10 µM
O=C1COc2ccc(Nc3ncc(F)c(Nc4ccc5c(c4)NC(=O)CO5)n3)cc2N1 [Compound 1083]	–	IC50 (Syk kinase; 11-point): < 10 µM
COc1cc(Nc2ncc(F)c(Nc3ccc4c(n3)NCCO4)n2)cc(OC)c1OC [Compound 1145, N4-(3,4-Dihydro-2H,4H-5-pyrid[1,4]oxazin-6-yl)-5-fluoro-N2-(3,4,5-trimethoxyphenyl)-2,4-pyrimidinediamine]	–	IC50 (Syk kinase; 4 uM ATP, 11pt): < 10 µM
COC(=O)CNC(=O)c1ccc(Nc2ncc(F)c(Nc3ccc4c(c3)NC(=O)C(C)(C)O4)n2)cc1 [Compound 1286]	–	IC50 ([2]; 3pt, read-out: LD Tryptase, CHMC, IgE, 3pt): < 10 µM; IC50 ([2]; 8pt, read-out: LD Tryptase, CHMC, IgE, 8pt): < 10 µM; IC50 [3]: > 10 µM; IC50 (Syk kinase; 4 uM ATP, 11pt): < 10 µM
COC(=O)CCNC(=O)c1ccc(Nc2ncc(F)c(Nc3ccc4c(n3)NC(=O)C(C)(C)O4)n2)cc1 [Compound 1312, N4-(2,2-Dimethyl-3-oxo-4H-5-pyrid[1,4]oxazin-6-yl)-5-fluoro-N2-[4-[N-(2-methoxycarbonylethyl)aminocarbonyl]phenyl]-2,4-pyrimidinediamine]	–	IC50 (Syk kinase; 4 uM ATP, 11pt): < 10 µM
